Test results from ChEMBL document CHEMBL4725318, “New vinyl-1,2,4-triazole derivatives as antimicrobial agents: Synthesis, biological evaluation and molecular docking studies” (2020).
Values after ≈ are worked out from the molar mass of the structure shown.

What was measured:
Format in all cases: functional
Penicillium ochrochloron [1] = assay: Antifungal activity Penicillium ochrochloron by microdilution method
Talaromyces funiculosus [2] = assay: Antifungal activity Penicillium funiculosum by microdilution method
[3] = test system: Pectobacterium carotovorum; assay: Antibacterial activity against Erwinia carotovora by microdilution method
Aspergillus versicolor [4] = assay: Fungicidal activity Aspergillus versicolor
Aspergillus fumigatus [5] = assay: Fungicidal activity Aspergillus fumigatus
Aspergillus ochraceus [6] = assay: Antifungal activity Aspergillus ochraceus by microdilution method
Xanthomonas campestris [7] = assay: Antibacterial activity against Xanthomonas campestris by microdilution method
Talaromyces funiculosus [8] = assay: Fungicidal activity Penicillium funiculosum
Erwinia amylovora [9] = assay: Bactericidal activity against Erwinia amylovora
Trichoderma viride [10] = assay: Antifungal activity Trichoderma viride by microdilution method
Trichoderma viride [11] = assay: Fungicidal activity Trichoderma viride
Pseudomonas fluorescens [12] = assay: Bactericidal activity against Pseudomonas fluorescens
Aspergillus niger [13] = assay: Antifungal activity Aspergillus niger by microdilution method
Bacillus subtilis [14] = assay: Bactericidal activity against Bacillus subtilis
Aspergillus fumigatus [15] = assay: Antifungal activity Aspergillus fumigatus by microdilution method
Aspergillus versicolor [16] = assay: Antifungal activity Aspergillus versicolor by microdilution method
[17] = test system: Pectobacterium carotovorum; assay: Bactericidal activity against Erwinia carotovora
Erwinia amylovora [18] = assay: Antibacterial activity against Erwinia amylovora by microdilution method
Xanthomonas campestris [19] = assay: Bactericidal activity against Xanthomonas campestris
Pseudomonas fluorescens [20] = assay: Antibacterial activity against Pseudomonas fluorescens by microdilution method
Penicillium cyclopium [21] = assay: Fungicidal activity Penicillium verrucosum var. cyclopium
Aspergillus ochraceus [22] = assay: Fungicidal activity Aspergillus ochraceus
Penicillium ochrochloron [23] = assay: Fungicidal activity Penicillium ochrochloron
Penicillium cyclopium [24] = assay: Antifungal activity Penicillium verrucosum var. cyclopium by microdilution method
Bacillus subtilis [25] = assay: Antibacterial activity against Bacillus subtilis by microdilution method
Aspergillus niger [26] = assay: Fungicidal activity Aspergillus niger

| SMILES | MIC [3] [µM] | MIC (Xanthomonas campestris [7]) [µM] | MIC (Erwinia amylovora [18]) [µM] | MIC (Pseudomonas fluorescens [20]) [µM] | MIC (Penicillium ochrochloron [1]) [µM] | MIC (Talaromyces funiculosus [2]) [µM] | MFC (Aspergillus versicolor [4]) [µM] | MFC (Aspergillus fumigatus [5]) [µM] | MIC (Aspergillus ochraceus [6]) [µM] | MFC (Talaromyces funiculosus [8]) [µM] | MBC (Erwinia amylovora [9]) [µM] | MIC (Trichoderma viride [10]) [µM] | MFC (Trichoderma viride [11]) [µM] | MBC (Pseudomonas fluorescens [12]) [µM] | MIC (Aspergillus niger [13]) [µM] | MBC (Bacillus subtilis [14]) [µM] | MIC (Aspergillus fumigatus [15]) [µM] | MIC (Aspergillus versicolor [16]) [µM] | MBC [17] [µM] | MBC (Xanthomonas campestris [19]) [µM] | also measured |
| --- | --- | --- | --- | --- | --- | --- | --- | --- | --- | --- | --- | --- | --- | --- | --- | --- | --- | --- | --- | --- | --- |
| CC(C)(C)c1cc(/C=C(/C(=O)c2ccc(Cl)cc2Cl)n2cncn2)cc(C(C)(C)C)c1O | 4.5 (≈ 2.13 µg/mL) | 17 (≈ 8.03 µg/mL) | 17 (≈ 8.03 µg/mL) | 9 (≈ 4.25 µg/mL) | 80 (≈ 37.8 µg/mL) | 120 (≈ 56.7 µg/mL) | 160 (≈ 75.6 µg/mL) | 160 (≈ 75.6 µg/mL) | 60 (≈ 28.3 µg/mL) | 160 (≈ 75.6 µg/mL) | 17 (≈ 8.03 µg/mL) | 30 (≈ 14.2 µg/mL) | 80 (≈ 37.8 µg/mL) | 9 (≈ 4.25 µg/mL) | 80 (≈ 37.8 µg/mL) | 17 (≈ 8.03 µg/mL) | 80 (≈ 37.8 µg/mL) | 80 (≈ 37.8 µg/mL) | 9 (≈ 4.25 µg/mL) | 17 (≈ 8.03 µg/mL) | MFC (Penicillium cyclopium [21]): 320 µM (≈ 151 µg/mL); MFC (Aspergillus ochraceus [22]): 160 µM (≈ 75.6 µg/mL); MFC (Penicillium ochrochloron [23]): 160 µM (≈ 75.6 µg/mL); MIC (Penicillium cyclopium [24]): 160 µM (≈ 75.6 µg/mL); MIC (Bacillus subtilis [25]): 17 µM (≈ 8.03 µg/mL); MFC (Aspergillus niger [26]): 160 µM (≈ 75.6 µg/mL) |
| c1ccc(-c2ccc(C(c3ccccc3)n3ccnc3)cc2)cc1 (centres undefined) [BIFONAZOLE] |  |  |  |  | 640 (≈ 199 µg/mL) | 640 (≈ 199 µg/mL) | 640 (≈ 199 µg/mL) | 640 (≈ 199 µg/mL) | 480 (≈ 149 µg/mL) | 810 (≈ 251 µg/mL) |  | 480 (≈ 149 µg/mL) | 640 (≈ 199 µg/mL) |  | 480 (≈ 149 µg/mL) |  | 480 (≈ 149 µg/mL) | 320 (≈ 99.3 µg/mL) |  |  | MFC (Penicillium cyclopium [21]): 640 µM (≈ 199 µg/mL); MFC (Aspergillus ochraceus [22]): 640 µM (≈ 199 µg/mL); MFC (Penicillium ochrochloron [23]): 810 µM (≈ 251 µg/mL); MIC (Penicillium cyclopium [24]): 320 µM (≈ 99.3 µg/mL); MFC (Aspergillus niger [26]): 640 µM (≈ 199 µg/mL) |
| CC(=O)N1CCN(c2ccc(OCC3COC(Cn4ccnc4)(c4ccc(Cl)cc4Cl)O3)cc2)CC1 (centres undefined) [KETOCONAZOLE] |  |  |  |  | 1880 (≈ 999 µg/mL) | 380 (≈ 202 µg/mL) | 940 (≈ 500 µg/mL) | 940 (≈ 500 µg/mL) | 280 (≈ 149 µg/mL) | 940 (≈ 500 µg/mL) |  | 1880 (≈ 999 µg/mL) | 2820 (≈ 1500 µg/mL) |  | 380 (≈ 202 µg/mL) |  | 380 (≈ 202 µg/mL) | 380 (≈ 202 µg/mL) |  |  | MFC (Penicillium cyclopium [21]): 570 µM (≈ 303 µg/mL); MFC (Aspergillus ochraceus [22]): 380 µM (≈ 202 µg/mL); MFC (Penicillium ochrochloron [23]): 2820 µM (≈ 1500 µg/mL); MIC (Penicillium cyclopium [24]): 380 µM (≈ 202 µg/mL); MFC (Aspergillus niger [26]): 940 µM (≈ 500 µg/mL) |

The next lines start with results.

| MIC [3] [µM] | MIC (Xanthomonas campestris [7]) [µM] | MIC (Erwinia amylovora [18]) [µM] | MIC (Pseudomonas fluorescens [20]) [µM] | SMILES | MIC (Penicillium ochrochloron [1]) [µM] | MIC (Talaromyces funiculosus [2]) [µM] | MFC (Aspergillus versicolor [4]) [µM] | MFC (Aspergillus fumigatus [5]) [µM] | MIC (Aspergillus ochraceus [6]) [µM] | MFC (Talaromyces funiculosus [8]) [µM] | MBC (Erwinia amylovora [9]) [µM] | MIC (Trichoderma viride [10]) [µM] | MFC (Trichoderma viride [11]) [µM] | MBC (Pseudomonas fluorescens [12]) [µM] | MIC (Aspergillus niger [13]) [µM] | MBC (Bacillus subtilis [14]) [µM] | MIC (Aspergillus fumigatus [15]) [µM] | MIC (Aspergillus versicolor [16]) [µM] | MBC [17] [µM] | MBC (Xanthomonas campestris [19]) [µM] | also measured |
| --- | --- | --- | --- | --- | --- | --- | --- | --- | --- | --- | --- | --- | --- | --- | --- | --- | --- | --- | --- | --- | --- |
| 2.7 (≈ 0.995 µg/mL) | 2.7 (≈ 0.995 µg/mL) | 2.7 (≈ 0.995 µg/mL) | 2.7 (≈ 0.995 µg/mL) | CN(C)c1ccc(/C=C(/C(=O)c2ccc3ccccc3c2)n2cncn2)cc1 | 140 (≈ 51.6 µg/mL) | 190 (≈ 70 µg/mL) | 270 (≈ 99.5 µg/mL) | 270 (≈ 99.5 µg/mL) | 70 (≈ 25.8 µg/mL) | 270 (≈ 99.5 µg/mL) | 5.4 (≈ 1.99 µg/mL) | 70 (≈ 25.8 µg/mL) | 140 (≈ 51.6 µg/mL) | 2.7 (≈ 0.995 µg/mL) | 140 (≈ 51.6 µg/mL) | 5.4 (≈ 1.99 µg/mL) | 140 (≈ 51.6 µg/mL) | 140 (≈ 51.6 µg/mL) | 2.7 (≈ 0.995 µg/mL) | 5.4 (≈ 1.99 µg/mL) | MFC (Penicillium cyclopium [21]): 270 µM (≈ 99.5 µg/mL); MFC (Aspergillus ochraceus [22]): 140 µM (≈ 51.6 µg/mL); MFC (Penicillium ochrochloron [23]): 270 µM (≈ 99.5 µg/mL); MIC (Penicillium cyclopium [24]): 140 µM (≈ 51.6 µg/mL); MIC (Bacillus subtilis [25]): 5.4 µM (≈ 1.99 µg/mL); MFC (Aspergillus niger [26]): 270 µM (≈ 99.5 µg/mL) |
| 0.1 (≈ 0.0349 µg/mL) | 0.2 (≈ 0.0699 µg/mL) | 0.25 (≈ 0.0874 µg/mL) | 8.6 (≈ 3 µg/mL) | CC1(C)S[C@@H]2[C@H](NC(=O)[C@H](N)c3ccccc3)C(=O)N2[C@H]1C(=O)O [AMPICILLIN] |  |  |  |  |  |  | 0.5 (≈ 0.175 µg/mL) |  |  | 8.6 (≈ 3 µg/mL) |  | 0.2 (≈ 0.0699 µg/mL) |  |  | 0.2 (≈ 0.0699 µg/mL) | 0.2 (≈ 0.0699 µg/mL) | MIC (Bacillus subtilis [25]): 0.2 µM (≈ 0.0699 µg/mL) |
| 0.25 (≈ 0.0808 µg/mL) | 0.1 (≈ 0.0323 µg/mL) | 0.15 (≈ 0.0485 µg/mL) | 0.5 (≈ 0.162 µg/mL) | O=C(N[C@H](CO)[C@H](O)c1ccc([N+](=O)[O-])cc1)C(Cl)Cl [CHLORAMPHENICOL] |  |  |  |  |  |  | 0.3 (≈ 0.0969 µg/mL) |  |  | 0.5 (≈ 0.162 µg/mL) |  | 0.3 (≈ 0.0969 µg/mL) |  |  | 0.5 (≈ 0.162 µg/mL) | 0.1 (≈ 0.0323 µg/mL) | MIC (Bacillus subtilis [25]): 0.3 µM (≈ 0.0969 µg/mL) |
